Active and inactive are the calls of the source. For most assays here, no stated cut-off is given here; in the data, actives have a measured Kd and inactives only a lower limit.

Test [1] addresses T1, Discoidin domain-containing receptor 2 (Homo sapiens, UniProt Q16832).
T1 sequence (Q16832 whole entry): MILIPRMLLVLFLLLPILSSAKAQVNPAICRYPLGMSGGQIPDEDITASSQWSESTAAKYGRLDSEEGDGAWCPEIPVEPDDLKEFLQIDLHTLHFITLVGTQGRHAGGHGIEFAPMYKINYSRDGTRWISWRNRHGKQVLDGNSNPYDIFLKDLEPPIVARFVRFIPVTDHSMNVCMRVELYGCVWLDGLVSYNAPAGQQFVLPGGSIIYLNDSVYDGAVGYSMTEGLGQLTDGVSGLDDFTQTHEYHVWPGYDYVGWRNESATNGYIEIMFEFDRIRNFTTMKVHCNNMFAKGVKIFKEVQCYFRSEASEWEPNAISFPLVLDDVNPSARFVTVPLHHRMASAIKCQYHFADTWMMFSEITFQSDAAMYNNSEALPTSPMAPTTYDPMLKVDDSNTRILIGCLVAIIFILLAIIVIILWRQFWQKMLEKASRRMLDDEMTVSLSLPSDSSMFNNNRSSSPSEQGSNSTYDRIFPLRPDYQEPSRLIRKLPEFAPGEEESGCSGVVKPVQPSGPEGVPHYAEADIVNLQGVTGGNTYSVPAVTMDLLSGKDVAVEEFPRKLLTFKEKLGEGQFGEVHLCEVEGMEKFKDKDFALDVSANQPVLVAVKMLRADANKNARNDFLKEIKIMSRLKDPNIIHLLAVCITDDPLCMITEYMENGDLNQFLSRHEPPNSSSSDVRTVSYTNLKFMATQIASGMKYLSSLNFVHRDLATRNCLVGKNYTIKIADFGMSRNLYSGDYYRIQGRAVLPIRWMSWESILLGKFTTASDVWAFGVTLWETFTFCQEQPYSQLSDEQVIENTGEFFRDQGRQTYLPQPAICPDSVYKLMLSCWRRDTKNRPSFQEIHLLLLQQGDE

The target of test [2] is DnaJ homolog subfamily A member 1 (Homo sapiens, UniProt P31689).
The target in test [3] is T2, Phenylalanine--tRNA ligase beta subunit (Homo sapiens, UniProt Q9NSD9).
T2 sequence (Q9NSD9 whole entry): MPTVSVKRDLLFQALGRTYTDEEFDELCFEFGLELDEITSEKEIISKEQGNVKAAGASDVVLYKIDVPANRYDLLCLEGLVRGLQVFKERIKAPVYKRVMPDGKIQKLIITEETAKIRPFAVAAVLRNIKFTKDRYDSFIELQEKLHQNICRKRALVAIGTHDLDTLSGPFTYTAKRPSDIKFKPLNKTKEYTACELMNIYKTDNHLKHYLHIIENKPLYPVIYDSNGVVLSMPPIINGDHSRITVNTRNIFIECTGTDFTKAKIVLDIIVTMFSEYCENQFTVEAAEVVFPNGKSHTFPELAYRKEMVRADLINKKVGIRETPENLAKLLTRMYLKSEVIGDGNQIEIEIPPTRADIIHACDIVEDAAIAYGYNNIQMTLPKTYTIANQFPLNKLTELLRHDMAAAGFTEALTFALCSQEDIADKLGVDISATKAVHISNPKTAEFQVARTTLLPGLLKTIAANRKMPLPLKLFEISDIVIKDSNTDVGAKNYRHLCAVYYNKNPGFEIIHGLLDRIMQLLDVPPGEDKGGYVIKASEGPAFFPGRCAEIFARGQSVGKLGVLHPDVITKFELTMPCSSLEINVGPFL

For test [4], the target named is Dual specificity mitogen-activated protein kinase kinase 1 (Homo sapiens, UniProt Q02750).
For test [5], the target named is T3, Serine/threonine-protein kinase PLK4 (Homo sapiens, UniProt O00444).
T3 sequence (O00444 whole entry): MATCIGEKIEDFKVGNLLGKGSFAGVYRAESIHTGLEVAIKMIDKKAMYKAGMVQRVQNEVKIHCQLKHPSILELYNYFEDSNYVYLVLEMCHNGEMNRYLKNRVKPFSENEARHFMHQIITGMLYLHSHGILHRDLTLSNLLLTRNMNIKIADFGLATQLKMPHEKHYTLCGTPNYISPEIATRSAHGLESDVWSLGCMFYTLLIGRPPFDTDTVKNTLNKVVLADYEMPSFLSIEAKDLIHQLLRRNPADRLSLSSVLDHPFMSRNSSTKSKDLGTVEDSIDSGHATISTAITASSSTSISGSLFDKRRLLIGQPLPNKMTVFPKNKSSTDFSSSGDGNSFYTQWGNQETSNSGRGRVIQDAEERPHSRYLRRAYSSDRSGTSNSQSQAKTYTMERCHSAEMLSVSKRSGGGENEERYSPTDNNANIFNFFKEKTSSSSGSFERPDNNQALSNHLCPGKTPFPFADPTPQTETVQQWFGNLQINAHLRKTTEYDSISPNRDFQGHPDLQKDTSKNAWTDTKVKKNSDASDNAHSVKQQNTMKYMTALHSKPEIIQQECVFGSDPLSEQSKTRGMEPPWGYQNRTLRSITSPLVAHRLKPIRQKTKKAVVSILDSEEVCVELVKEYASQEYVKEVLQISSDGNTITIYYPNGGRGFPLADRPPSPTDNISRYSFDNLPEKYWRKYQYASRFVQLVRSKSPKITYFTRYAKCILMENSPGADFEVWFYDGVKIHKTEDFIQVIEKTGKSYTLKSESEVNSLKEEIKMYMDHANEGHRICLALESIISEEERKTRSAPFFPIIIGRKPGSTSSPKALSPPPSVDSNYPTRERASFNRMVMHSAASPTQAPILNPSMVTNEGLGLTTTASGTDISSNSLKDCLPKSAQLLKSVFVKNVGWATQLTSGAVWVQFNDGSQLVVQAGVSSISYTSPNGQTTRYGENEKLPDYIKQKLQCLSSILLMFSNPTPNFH

The target of test [6] is Serine/threonine-protein kinase 26 (Homo sapiens, UniProt Q9P289).
Serine/threonine-protein kinase 26, sequence (Q9P289 whole entry): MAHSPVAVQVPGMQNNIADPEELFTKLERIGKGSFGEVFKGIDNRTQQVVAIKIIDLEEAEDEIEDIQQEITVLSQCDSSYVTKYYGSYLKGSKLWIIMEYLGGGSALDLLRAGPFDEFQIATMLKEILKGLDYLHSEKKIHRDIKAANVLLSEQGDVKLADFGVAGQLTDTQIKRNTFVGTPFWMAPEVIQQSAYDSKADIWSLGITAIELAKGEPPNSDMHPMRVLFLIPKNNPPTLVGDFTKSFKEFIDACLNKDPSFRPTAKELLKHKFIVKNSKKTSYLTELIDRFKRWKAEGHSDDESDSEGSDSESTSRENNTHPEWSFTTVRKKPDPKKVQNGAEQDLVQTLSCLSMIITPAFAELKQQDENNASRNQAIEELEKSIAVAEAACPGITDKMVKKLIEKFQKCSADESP

Dual specificity mitogen-activated protein kinase kinase 1, sequence (Q02750 whole entry): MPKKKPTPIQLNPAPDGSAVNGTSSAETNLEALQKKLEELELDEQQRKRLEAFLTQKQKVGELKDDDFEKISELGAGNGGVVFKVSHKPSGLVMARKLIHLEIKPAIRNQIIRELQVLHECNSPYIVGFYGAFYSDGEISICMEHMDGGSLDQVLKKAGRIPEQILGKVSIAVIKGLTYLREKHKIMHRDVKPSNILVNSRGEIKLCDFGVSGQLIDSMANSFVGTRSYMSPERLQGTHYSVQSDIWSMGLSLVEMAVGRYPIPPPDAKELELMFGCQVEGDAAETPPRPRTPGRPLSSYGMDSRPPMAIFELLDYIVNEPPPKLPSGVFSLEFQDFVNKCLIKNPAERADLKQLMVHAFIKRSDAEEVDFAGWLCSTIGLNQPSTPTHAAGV
DnaJ homolog subfamily A member 1, sequence (P31689 whole entry): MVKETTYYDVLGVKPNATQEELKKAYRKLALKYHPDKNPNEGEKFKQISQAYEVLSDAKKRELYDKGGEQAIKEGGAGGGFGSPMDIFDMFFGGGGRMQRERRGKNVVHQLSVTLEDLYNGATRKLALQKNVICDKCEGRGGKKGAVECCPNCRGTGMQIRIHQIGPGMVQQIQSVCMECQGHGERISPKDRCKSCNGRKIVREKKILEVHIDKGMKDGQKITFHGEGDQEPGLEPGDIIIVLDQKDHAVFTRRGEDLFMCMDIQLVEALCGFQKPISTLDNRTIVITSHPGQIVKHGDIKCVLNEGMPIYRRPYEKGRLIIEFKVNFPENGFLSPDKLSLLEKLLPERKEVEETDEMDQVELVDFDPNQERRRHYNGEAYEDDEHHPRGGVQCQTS

For orientation: Kd means the concentration at which binding is half-saturated. As for `C[C@@H](Oc1cc(C(=O)Nc2ccc(C(=O)N3CCN(C)CC3)cc2)nnc1N)c1c(Cl)ccc(F)c1Cl`, the Kd in test [1], in test [2], in test [3], in test [4], in test [5] and in test [6] was > 30 µM (inactive) in each case.
With `Nc1ncnc2c1c(-c1cccc(OCc3ccccc3)c1)cn2[C@H]1C[C@@H](CN2CCC2)C1` [AEW-541], the Kd is > 30 µM (inactive) in test [1]; > 30 µM (inactive) in test [2]; > 30 µM (inactive) in test [3]; 3.33 µM (active) in test [4]; > 30 µM (inactive) in test [5]; > 30 µM (inactive) in test [6].
On to `Cc1nc(NC(=O)N2CCC[C@H]2C(N)=O)sc1-c1ccnc(C(C)(C)C(F)(F)F)c1` [ALPELISIB], for which the Kd in test [1], in test [2], in test [3], in test [4], in test [5] and in test [6] was > 30 µM (inactive) each time.
As for `Cc1csc(-c2nnc(Nc3ccc(Oc4ncccc4-c4ccnc(N)n4)cc3)c3ccccc23)c1` [AMG-900], the dissociation constant Kd in test [1] is 0.298 µM (active); in test [2] it was > 30 µM (inactive); in test [3], > 30 µM (inactive); in test [4] it was 3.31 µM (active); in test [5] it was > 30 µM (inactive); in test [6], 3.02 µM (active).
Regarding `O=C(Nc1c[nH]nc1-c1nc2cc(CN3CCOCC3)ccc2[nH]1)NC1CC1` [AT-9283], the Kd is > 30 µM (inactive) in test [1]; > 30 µM (inactive) in test [2]; > 30 µM (inactive) in test [3]; > 30 µM (inactive) in test [4]; 0.021 µM (active) in test [5]; > 30 µM (inactive) in test [6].
For `C=CC(=O)Nc1cc2c(Nc3ccc(F)c(Cl)c3)ncnc2cc1C#CC(C)(C)N1CCN(C)CC1` [AV-412 FREE BASE], the Kd in test [1], in test [2], in test [3], in test [4], in test [5] and in test [6] was > 30 µM (inactive) throughout.
Regarding `COc1cc([C@@H]2c3cc4c(cc3[C@H](O)[C@H]3COC(=O)[C@@H]23)OCO4)cc(OC)c1OC` [AXL-1717], the Kd in test [1], in test [2], in test [3], in test [4], in test [5] and in test [6] was > 30 µM (inactive) in each case.
On to `NC(=O)Nc1cc(-c2cccc(F)c2)sc1C(=O)N[C@H]1CCCNC1` [AZD-7762], for which the Kd in test [1] is > 30 µM (inactive); in test [2] it was > 30 µM (inactive); in test [3] it was > 30 µM (inactive); in test [4], 2.04 µM (active); in test [5] it was 0.722 µM (active); in test [6], > 30 µM (inactive).
With `Cn1cnc2c(F)c(Nc3ccc(Br)cc3F)c(C(=O)NOCCO)cc21` [BINIMETINIB], the Kd in test [1] is > 30 µM (inactive); in test [2], > 30 µM (inactive); in test [3], > 30 µM (inactive); in test [4] it was 0.045 µM (active); in test [5], > 30 µM (inactive); in test [6], > 30 µM (inactive).
For `CCn1c(C(=O)N(C2CC2)C2CC2)cc2c3c(ncn3C)c(Nc3cc(C)n(C)n3)nc21` [BMS-911543], the Kd in test [1], in test [2], in test [3], in test [4], in test [5] and in test [6] was > 30 µM (inactive) in each case.
Turning to `COc1cc2ncnc(Oc3cccc(NC(=O)Nc4cc(C(C)(C)C(F)(F)F)on4)c3)c2cc1OC` [CEP-32496], the Kd in test [1] was 0.183 µM (active); in test [2] it was > 30 µM (inactive); in test [3], > 30 µM (inactive); in test [4], > 30 µM (inactive); in test [5], > 30 µM (inactive); in test [6], > 30 µM (inactive).

(Values after ChEMBL document CHEMBL3991601, “The target landscape of clinical kinase drugs” (Science, 2017).)
